The values below are quoted from earlier work in patent US20240216476A1, “COMBINATION OF BITTER RECEPTOR AGONIST AND GUT-SIGNALING COMPOUND” (AARDVARK THERAPEUTICS, INC., priority 2021, published 2024).

Where two headings read alike, the source gives them in different places. Marks after values point to notes of the source that are not given here.

For data set [1], the system named is ob/ob mice. Conditions: cited from earlier work.
For data set [2] the following is noted: cited from earlier work; for Effect on Body Weight (placebo-adjusted change from baseline) / Effect on HbA1c (placebo-adjusted change from baseline) / Effect on Body Weight (placebo-adjusted change from baseline), percent: QD 24-26 weeks; for TG level change from baseline: placebo +19%.
In data set [3] the test system is C57Bl/6J mice fed with high-fat diet. Conditions: alogliptin 0.03% (wt/wt) in diet for life span, cited from earlier work; for Control-adjusted Percent Change in Body Weight Gain / Control-adjusted Percent Change in Fasting Blood Glucose / Control-adjusted Percent Change in Insulin Level: sitagliptin 0.004% in diet 12 weeks; for Control-adjusted Percent Change in Body Weight Gain / Control-adjusted Percent Change in Fasting Blood Glucose / Control-adjusted Percent Change in Insulin Level / Control-adjusted Percent Change in Lipid Levels: TC / Control-adjusted Percent Change in Lipid Levels: TG: vildagliptin 30 mg/kg/day 7 weeks.

Data set [4] deals with C57BL/6 mice fed on HFD. The following applies: end of study, dulaglutide 0.6 mg/kg once weekly IP 12 weeks, liraglutide 0.3 mg/kg QD SC 38 days, cited from earlier work.
The conditions of data set [5]: in vivo; cited from earlier work.
The mark [6] stands for this setting: vildagliptin 1.9 mg/kg BID 33 days.
Where [7] appears, read: vildagliptin 6.3 mg/kg BID 33 days.
The mark [8] stands for this setting: semaglutide 3 mg, sitagliptin 100 mg, saxagliptin 2.5 mg, vildagliptin 50 mg, alogliptin 12.5 mg, linagliptin 5 mg.
The mark [9] stands for this setting: semaglutide 7 mg, sitagliptin 200 mg, saxagliptin 5 mg, vildagliptin 100 mg, alogliptin 25 mg.
Setting [10] is: sitagliptin 0.0018% in diet 12 weeks, alogliptin 42.2 mg/kg/day 28 days.
Setting [11] is: exenatide 24 nmol/kg QD IP 4 weeks.

On to `N#C[C@@H]1CCCN1C(=O)CNC12CC3CC(CC(O)(C3)C1)C2` [Vildagliptin], for which, in data set [1] (setting [6]), the “Control-adjusted Percent Change in Fasting Blood Glucose” value is recorded as −29.4% and the “Control-adjusted Percent Change in TG Level” value is listed as −29.3%. In data set [1] (setting [7]), the “Control-adjusted Percent Change in Fasting Blood Glucose” value was −40.2% and the “Control-adjusted Percent Change in TG Level” value is recorded as −19.9%. In addition, in data set [2] (setting [8]), the “Effect on Body Weight (placebo-adjusted change from baseline)” value is 50 mg: +0.6 kg and the “Effect on HbA1c (placebo-adjusted change from baseline)” value is listed as 50 mg: −0.7%. For the same molecule, the “Effect on Body Weight (placebo-adjusted change from baseline), percent” value in data set [2] (semaglutide 3 mg, sitagliptin 100 mg, saxagliptin 2.5 mg, vildagliptin 50 mg) was “(+0.65%)”. Further, in data set [2] (setting [9]), the “Effect on Body Weight (placebo-adjusted change from baseline)” value is on record as 100 mg: +1.2 kg and the “Effect on HbA1c (placebo-adjusted change from baseline)” value is reported as 100 mg: −1.1%. In addition, the “Effect on Body Weight (placebo-adjusted change from baseline), percent” value in data set [2] (semaglutide 7 mg, sitagliptin 200 mg, saxagliptin 5 mg, vildagliptin 100 mg) was “(+1.3%)”. In data set [2] (vildagliptin 50 mg QD 24 weeks), the “TG level change from baseline” value was “from baseline: +1%”. Further, the “TG level change from baseline” value in data set [2] (vildagliptin 100 mg QD 24 weeks) is “(50 mg) ^$ and +5%”. The “Other lipid parameters, change” value in data set [2] (vildagliptin, all treatment groups, no significant between-treatment differences) is reported as “changed by <3%”. Also, in data set [3], the “Control-adjusted Percent Change in Body Weight Gain” value is reported as “+11%”, the “Control-adjusted Percent Change in Fasting Blood Glucose” value was −15.1%*, the “Control-adjusted Percent Change in Insulin Level” value is recorded as −33.2% and the “Control-adjusted Percent Change in Lipid Levels: TC” value is −51.5% in TC*. The “Control-adjusted Percent Change in Lipid Levels: TG” value in data set [3] is recorded as −23.6% in TG**.

For the molecule `Cn1c(=O)cc(N2CCC[C@@H](N)C2)n(Cc2ccccc2C#N)c1=O` [Alogliptin], the “Control-adjusted Percent Change in HbA1c Level” value in data set [1] (alogliptin 42.2 mg/kg/day 28 days) is listed as −13%**. Besides, in data set [1] (setting [10]), the “Control-adjusted Percent Change in Fasting Blood Glucose” value is listed as −15.6%, the “Control-adjusted Percent Change in Insulin Level” value is reported as “+105%* *” and the “Control-adjusted Percent Change in TG Level” value is listed as −24.5%. Also, in data set [2] (alogliptin 12.5 mg QD 26 weeks, placebo +1.3), the “HDL (mg/dL)” value is on record as “HDL (mg/dL): +0.9”. The “LDL (mg/dL)” value in data set [2] (alogliptin 12.5 mg QD 26 weeks, placebo +4.6) was “LDL (mg/dL): −0.5”. Besides, in data set [2] (alogliptin 12.5 mg QD 26 weeks, placebo +10.1), the “TC (mg/dL)” value was “TC (mg/dL): −1.2”. In addition, the “TG (mg/dL)” value in data set [2] (alogliptin 12.5 mg QD 26 weeks, placebo +26.5) is listed as “TG (mg/dL): −5.8”. In data set [2] (setting [8]), the “Effect on Body Weight (placebo-adjusted change from baseline)” value is reported as 12.5 mg: −0.27 kg and the “Effect on HbA1c (placebo-adjusted change from baseline)” value is 12.5 mg: −0.54%. Besides, in data set [2] (setting [9]), the “Effect on Body Weight (placebo-adjusted change from baseline)” value is listed as 25 mg: −0.4 kg and the “Effect on HbA1c (placebo-adjusted change from baseline)” value is given as 25 mg: −0.57%. Besides, in data set [3], the “Control-adjusted Percent Change in HbA1c Level” value is recorded as −8.8%, the “Control-adjusted Percent Change in Lipid Levels: LDL” value is given as −16.4% in LDL, the “Control-adjusted Percent Change in Body Weight Gain” value is −32.6%* and the “Control-adjusted Percent Change in Fasting Blood Glucose” value is recorded as −10.1%. Besides, in data set [3], the “Control-adjusted Percent Change in Insulin Level” value is recorded as -47.9%*, the “Control-adjusted Percent Change in Lipid Levels: TC” value is recorded as −1.1% in TC and the “Control-adjusted Percent Change in Lipid Levels: TG” value is given as −19.2% in TG*.

Turning to “Dulaglutide: fusion protein GLP-1 receptor agonist”, the “Control-adjusted Percent Change in Insulin Level” value in data set [4] is recorded as −77%*. Also, in data set [4] (setting [11]), the “Control-adjusted Body Weight Gain” value is -8.1 g and the “Control-adjusted Percent Change in Body Weight” value is listed as −15.9%*. Further, the “Control-adjusted Percent Change in Fasting Blood Glucose” value in data set [4] (exenatide 24 nmol/kg QD IP 4 weeks, semaglutide 25 nmol/kg every two days SC 3 weeks) is on record as −16.3%*. Besides, in data set [5], the “Incidence of Hypoglycemic Episodes for Combination with Insulin (vs. Placebo)” value is given as 14.7%*, the “Incidence of Hypoglycemic Episodes for Combination with Metformin (vs. Placebo)” value is 0.7% and the “Incidence of Hypoglycemic Episodes for Combination with a Sulfonylurea (vs. Placebo)” value was 3.3%.
